Reference: article PMC12491518, “Fabrication of cytotoxic mirror image nanopores” (Nature Communications, 2025)
Where no end group is shown, it is not given here.

Experiments:
[1] = Single-channel electrical recordings in planar lipid bilayers; type: biochemical; conditions: Supplementary Table 1
Protocol: High-resolution electrical recordings for the single-channel characterization were conducted in planar lipid bilayers made up of 1,2-diphytanoyl-sn-glycero-3-phosphocholine (DPhPC, Avanti Polar Lipids)[23],[27],[51]. The lipid bilayer is formed across a polytetrafluoroethylene (Teflon) aperture of ~100 µm in diameter. Teflon is placed between the two sides of the Delrin bilayer chamber, partitioning it into cis and trans compartments (600 µL each). For constructing a solvent-free lipid bilayer, the aperture is made lipophilic by pre-painting both sides with hexadecane in n-pentane (1 μL, 5 mg mL^−1)[51]. After ~10 min, the chambers were filled with buffered electrolytes (1 M KCl, 10 mM HEPES, pH 7.4), and DPhPC in n-pentane (1 μL, 5 mg mL^−1) was added. After ~15 min incubation, the lipid bilayer is formed by raising and lowering the electrolyte solution, bringing the two lipid monolayers together at the aperture. The cis compartment was connected to the ground electrode, while the trans compartment was connected to the working live electrode. Subsequently, DpPorA or DpPorA DE peptides solubilized in 0.1% DDM (1 µL, 100 µg mL^−1) were consistently introduced into the cis compartment of the bilayer. The peptide pore insertion was facilitated by mixing the bilayer chamber and applying a high voltage of +200 mV. The single-channel electrical properties of the peptide pores and analyte-induced pore blockages were examined in 1 M KCl, 10 mM HEPES, pH 7.4. Ion selectivity was assessed under asymmetric salt conditions with a KCl concentration gradient across the planar lipid bilayer (0.15 M cis/1 M trans) (SI text)[27]. The ion current was acquired and amplified using an Axopatch 200B amplifier, digitized with Digidata 1550B digitizer, and recorded using the pClamp 11 acquisition software (Molecular Devices, CA). The current signals were filtered with a 2 kHz low-pass filter frequency and 10 kHz sampling frequency, or with 10 kHz low-pass filter frequency and 50 kHz sampling frequency, in line with the requirement.

MDA-MB-231 cells = type: cell-based, human; conditions: 10 µM and 20 µM, 24 h, MTT, n = 3
Protocol: The MDA-MB-231 cell line was obtained from ATCC (Kind gift from Dr. Annapoorni Rangarajan, Indian Institute of Science, Bengaluru, Karnataka, India) and tested negative for mycoplasma contamination. Cells were cultured in DMEM (Gibco, 11965-092) supplemented with 10% FBS (Thermo Fisher Scientific, 10270-106) and Penicillin (100 Units/mL) /Streptomycin (100 µg/mL) (Thermo Fisher Scientific, 15070-063). […] Cell proliferation was measured 24 h after the addition of Peptide/ DDM using MTT assay (3-(4,5-dimethylthiazol-2-yl)-2,5-diphenyltetrazolium bromide, M6494, Thermo Fischer Scientific). […] The purple-colored formazan crystals were dissolved by adding 100 µL DMSO (D5879, Sigma Aldrich), and the absorbance at 570 nm was measured using a plate reader (EMax plus microplate reader). […]
Immunofluorescence (IF) images were analyzed to assess the impact of different treatments on cell membrane integrity. […] We evaluated a t least 100 cells for each group - Control, DDM-treated cells and peptide-treated cells- with independent analysis done by a student blinded to the groups' identity . […]
indicating a loss of cell membrane integrity. This categorization provided a clear and systematic approach to quantify the effects of various treatments on cell membrane integrity. […]

Which results are given for “MIDQITEIFGQLGTFLGGFGNIFKGLKDVIETIVKWTAAK [LpPorA]”?
experimental conductance Gexp [1]: 3.0 ± 0.2 nS; change in cell viability (MDA-MB-231 cells): no significant change in viability

For “MIDQITEIFGQLGTFLGGFGNIFKGLKAVIATIVKWTAAK [LpPorA DE]”, which “experimental conductance Gexp” value [1] is on record?
The value was 3.8 ± 0.2 nS.
